Assay results: patent US20230011869A1 (Hoffmann-La Roche Inc., priority 2018, published 2023)
Where a name gives a salt, the structure may show the parent alone.

These molecules were tested on Acinetobacter baumannii ATCC17978 (assay: Antimicrobial susceptibility testing: 90% growth inhibitory concentration (IC90) determination, Iso-Sensitest broth). Conditions: 90% growth inhibitory concentration, Acinetobacter baumannii ATCC17978, Iso-Sensitest broth, OD 600 nm over 16 h; read-out: ATCC17978 IC90.
Format: cell-based
How it was run: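 A. baumannii ATCC17978 grown in Iso-Sensitest broth across 10 compound concentrations at 35±2 °C.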

IC90 [nM] | Compound
370 | COc1ccc(-c2cnc3c(Nc4ccc(C(=O)N5CCN(C(=O)[C@H]6CCN6)CC5)c(C)c4)nccn23)cc1F [Example 522, [4-[(2R)-azetidine-2-carbonyl]piperazin-1-yl]-[4-[[3-(3-fluoro-4-methoxyphenyl)imidazo[1,2-a]pyrazin-8-yl]amino]-2-methylphenyl]methanone; hy-drochloride]
88 | Cc1cc(Nc2nccn3c(-c4ccc(OCC#N)c(F)c4Cl)cnc23)ccc1C(=O)N1CCC(C(=O)N2CCN[C@@H](CO)C2)CC1 [Example 539, 2-[3-chloro-2-fluoro-4-[8-[4-[4-[(3R)-3-(hydroxymethyl)piperazine-1-carbonyl]piperidine-1-carbonyl]-3-methylanilino]imidazo[1,2-a]pyrazin-3-yl]phenoxy]acetonitrile; for-mic acid]
98 | Cc1cc(Nc2nccn3c(-c4ccc(OCC#N)c(F)c4F)cnc23)ccc1C(=O)N1CCC(C(=O)N2CCN[C@H](CO)C2)CC1 [Example 542, 2-[2,3-difluoro-4-[8-[4-[4-[(3S)-3-(hydroxymethyl)piperazine-1-carbonyl]piperidine-1-carbonyl]-3-methylanilino]imidazo[1,2-a]pyrazin-3-yl]phenoxy]acetonitrile; for-mic acid]
99 | Cc1cc(Nc2nccn3c(-c4ccc(OCC#N)c(F)c4F)cnc23)ccc1C(=O)N1CCC(C(=O)N2CCN[C@@H](CO)C2)CC1 [Example 543, 2-[2,3-difluoro-4-[8-[4-[4-[(3R)-3-(hydroxymethyl)piperazine-1-carbonyl]piperidine-1-carbonyl]-3-methylanilino]imidazo[1,2-a]pyrazin-3-yl]phenoxy]acetonitrile; for-mic acid]

Same assay, conditions: Acinetobacter baumannii, ATCC17978, 16 h, read-out: ATCC17978 IC90, 90% growth inhibitory concentration, Acinetobacter baumannii ATCC17978, Iso-Sensitest broth, OD 600 nm over 16 h

Compound | IC90 [nM]
Cc1cc(Nc2nccn3c(-c4ccc(OC(F)F)cc4)cnc23)ccc1C(=O)N1CCN(C(=O)[C@H]2CCN2)CC1 [Example 521, [4-[(2R)-azetidine-2-carbonyl]piperazin-1-yl]-[4-[[3-[4-(difluoromethoxy)phenyl]imi-dazo[1,2-a]pyrazin-8-yl]amino]-2-methylphenyl]methanone; hy-drochloride] | 370
Cc1cc(Nc2nccn3c(-c4ccc(OC(F)F)cc4)cnc23)ccc1C(=O)N1CCN(C(=O)C2CCNCC2O)CC1 (stereo not shown) [Example 523, [4-[[3-[4-(difluoromethoxy)phenyl]imi-dazo[1,2-a]pyrazin-8-yl]amino]-2-methylphenyl]-[4-(3-hydroxypiperidine-4-carbonyl)piperazin-1-yl]methanone; hydrochloride] | 390
CNCCNC(=O)N1CCN(C(=O)c2ccc(Nc3nccn4c(-c5ccc(OC(F)F)cc5)cnc34)cc2C)CC1 [Example 524, 4-[4-[[3-[4-(difluoromethoxy)phenyl]imi-dazo[1,2-a]pyrazin-8-yl]amino]-2-methylbenzoyl]-N-[2-(methylamino)eth-yl]piperazine-1-carboxamide; hydrochloride] | 470
Cc1cc(Nc2nccn3c(-c4ccc(OC(F)F)cc4)cnc23)ccc1C(=O)N1CCN(C(=O)[C@@H](N)CCC(N)=O)CC1 [Example 525, (4S)-4-amino-5-[4-[4-[[3-[4-(difluoromethoxy)phenyl]imi-dazo[1,2-a]pyrazin-8-yl]amino]-2-methylbenzoyl]piperazin-1-yl]-5-oxopentanamide; hydrochlo-ride] | 510
Cc1cc(Nc2nccn3c(-c4ccc(OC(F)F)cc4)cnc23)ccc1C(=O)N1CCN(C(=O)[C@@H](N)CO)CC1 [Example 526, (2S)-2-amino-1-[4-[4-[[3-[4-(difluoromethoxy)phenyl]imi-dazo[1,2-a]pyrazin-8-yl]amino]-2-methylbenzoyl]piperazin-1-yl]-3-hydroxypropan-1-one; hydrochloride] | 560
Cc1cc(Nc2nccn3c(-c4ccc(OC(F)F)cc4)cnc23)ccc1C(=O)N1CCN(C(=O)[C@@H](N)[C@@H](C)O)CC1 [Example 527, (2S,3R)-2-amino-1-[4-[4-[[3-[4-(difluoromethoxy)phenyl]imi-dazo[1,2-a]pyrazin-8-yl]amino]-2-methylbenzoyl]piperazin-1-yl]-3-hydroxybutan-1-one; hydrochloride] | 600
Cc1cc(Nc2nccn3c(-c4ccc(OC(F)F)cc4)cnc23)ccc1C(=O)N1CCN(C(=O)[C@@H](N)CC(N)=O)CC1 [Example 528, (3S)-3-amino-4-[4-[4-[[3-[4-(difluoromethoxy)phenyl]imi-dazo[1,2-a]pyrazin-8-yl]amino]-2-methylbenzoyl]piperazin-1-yl]-4-oxobutanamide; hydrochloride] | 610
Cc1cc(Nc2nccn3c(-c4ccc(OC(F)F)cc4)cnc23)ccc1C(=O)N1CCN(C(=O)[C@H]2C[C@H](O)CN2)CC1 [Example 529, [4-[[3-[4-(difluoromethoxy)phenyl]imi-dazo[1,2-a]pyrazin-8-yl]amino]-2-methylphenyl]-[4-[(2R,4S)-4-hydroxypyrrolidine-2-carbonyl]piperazin-1-yl]methanone; hydrochloride] | 690
COc1ccc(-c2cnc3c(Nc4ccc(C(=O)N5CCN(C(=O)[C@H](CCN)NC(=O)CC[C@H](N)C(=O)O)CC5)c(C)c4)nccn23)c(F)c1F [Example 532, (2S)-2-amino-5-[[(2S)-4-amino-1-[4-[4-[[3-(2,3-difluoro-4-methoxyphenyl)imidazo[1,2-a]pyrazin-8-yl]amino]-2-methylbenzoyl]piperazin-1-yl]-1-oxobutan-2-yl]amino]-5-oxopentanoic acid; hydrochloride] | 1200
COc1ccc(-c2cnc3c(Nc4ccc(C(=O)N5CCN(C(=O)[C@H](CCCN)NC(=O)CC[C@H](N)C(=O)O)CC5)c(C)c4)nccn23)c(F)c1F [Example 533, (2S)-2-amino-5-[[(2S)-5-amino-1-[4-[4-[[3-(2,3-difluoro-4-methoxyphenyl)imidazo[1,2-a]pyrazin-8-yl]amino]-2-methylbenzoyl]piperazin-1-yl]-1-oxopentan-2-yl]amino]-5-oxopentanoic acid; hydrochloride] | 1500
COc1ccc(-c2cnc3c(Nc4ccc(C(=O)N5CCN(C(=O)[C@H](CCCCN)NC(=O)[C@@H](N)CCC(=O)O)CC5)c(C)c4)nccn23)c(F)c1F [Example 537, (4S)-4-amino-5-[[(2S)-6-amino-1-[4-[4-[[3-(2,3-difluoro-4-methoxyphenyl)imidazo[1,2-a]pyrazin-8-yl]amino]-2-methylbenzoyl]piperazin-1-yl]-1-oxohexan-2-yl]amino]-5-oxopentanoic acid; hydrochloride] | 4400
CCc1cc(Nc2nccn3c(-c4ccc(OCC#N)c(F)c4F)cnc23)ccc1C(=O)N1CCC(C(=O)N2CCN[C@@H](CO)C2)CC1 [Example 540, 2-[4-[8-[3-ethyl-4-[4-[(3R)-3-(hydroxymethyl)piperazine-1-carbonyl]piperidine-1-carbonyl]anilino]imidazo[1,2-a]pyrazin-3-yl]-2,3-difluorophenoxy]acetonitrile; 2,2,2-trifluoroacetic acid] | 90
CCc1cc(Nc2nccn3c(-c4ccc(OCC#N)c(F)c4F)cnc23)ccc1C(=O)N1CCC(C(=O)N2CCN[C@H](CO)C2)CC1 [Example 541, 2-[4-[8-[3-ethyl-4-[4-[(3S)-3-(hydroxymethyl)piperazine-1-carbonyl]piperidine-1-carbonyl]anilino]imidazo[1,2-a]pyrazin-3-yl]-2,3-difluorophenoxy]acetonitrile; 2,2,2-trifluoroacetic acid] | 96
COc1ccc(-c2cnc3c(Nc4ccc(C(=O)N5CCC(C(=O)N6CCN[C@@H](CO)C6)CC5)c(C)c4)nccn23)c(F)c1F [Example 544, [4-[[3-(2,3-difluoro-4-methoxyphenyl)imidazo[1,2-a]pyrazin-8-yl]amino]-2-methylphenyl]-[4-[(3R)-3-(hydroxymethyl)piperazine-1-carbonyl]piperidin-1-yl]methanone; formic acid] | 100
Cc1cc(Nc2nccn3c(-c4ccc(OC(F)F)cc4)cnc23)ccc1C(=O)N1CCC(C(=O)NC[C@@H]2CNC(=O)O2)CC1 [Example 548, (R)-1-(4-((3-(4-(difluoromethoxy)phenyl)imidazo [1,2-a]pyrazin-8-yl)amino)-2-methylbenzoyl)-N-((2-oxooxazolidin-5-yl)methyl)piperidine-4-carboxamide] | 203
COc1ccc(-c2cnc3c(Nc4ccc(C(=O)N5CCN(C(=O)[C@@H]6C[C@@H](OC(=O)[C@@H](N)[C@@H](C)O)CN6)CC5)c(C)c4)nccn23)c(F)c1F [Example 549, [(3R,5S)-5-[4-[4-[[3-(2,3-difluoro-4-methoxy-phenyl)imidazo[1,2-a]pyrazin-8-yl]amino]-2-methyl-benzoyl]piperazine-1-carbonyl]pyrrolidin-3-yl] (2S,3R)-2-amino-3-hydroxy-butanoate formate] | 75
COc1ccc(-c2cnc3c(Nc4ccc(C(=O)N5CCN(C(=O)[C@@H]6C[C@@H](OC(=O)[C@@H](N)CCCNC(=N)N)CN6)CC5)c(C)c4)nccn23)c(F)c1F [Example 550, [(3R,5S)-5-[4-[4-[[3-(2,3-difluoro-4-methoxy-phenyl)imidazo[1,2-a]pyrazin-8-yl]amino]-2-methyl-benzoyl]piperazine-1-carbonyl]pyrrolidin-3-yl] 2-amino-5-guanidino-pentanoate formate] | 153
COc1ccc(-c2cnc3c(Nc4ccc(C(=O)N5CCN(C(=O)[C@@H]6C[C@@H](OC(=O)[C@@H]7CCCN7)CN6)CC5)c(C)c4)nccn23)c(F)c1F [Example 551, [(3R,5S)-5-[4-[4-[[3-(2,3-difluoro-4-methoxy-phenyl)imidazo[1,2-a]pyrazin-8-yl]amino]-2-methyl-benzoyl]piperazine-1-carbonyl]pyrrolidin-3-yl] pyrrolidine-2-carboxylate formate] | 196
